Publication PMC12514841 (Protein Science : A Publication of the Protein Society, 2025)
Converted amounts (≈) assume the structure as drawn. “And” between values parts separate entries of the source, which are not always exact repeats. Equal entries are not always repeated. Where two headings read alike, the source gives them in different places.

Experiments:
[1] = tested on: E. coli KA797 cells producing BlaC S130G; type: cell-based
[2] = tested on: E. coli KA797 cells producing BlaC G132N; type: cell-based
wild-type (WT) BlaC [3] = molecular target: T1, wild-type (WT) BlaC (Mycobacterium tuberculosis, UniProt P9WKD3); design: method as in Radojković, Chikunova, et al., [2025]; conditions: 100 mM NaPi, pH 6.4, 25°C, ref Radojković, Chikunova, et al., [2025]; cited from earlier work
T1 construct: 6xHis tag with TEV cleavage site (N); made in house; host or cells: E. coli BL21 (DE3) pLysS
T1 sequence (P9WKD3 35-307): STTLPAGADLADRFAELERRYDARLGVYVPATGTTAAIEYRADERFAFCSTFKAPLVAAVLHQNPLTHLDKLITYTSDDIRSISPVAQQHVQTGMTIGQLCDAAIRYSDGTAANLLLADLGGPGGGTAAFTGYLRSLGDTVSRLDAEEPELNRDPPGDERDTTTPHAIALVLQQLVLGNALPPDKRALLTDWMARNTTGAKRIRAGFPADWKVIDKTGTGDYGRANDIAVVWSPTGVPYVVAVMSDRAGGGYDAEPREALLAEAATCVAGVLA

wild-type (WT) BlaC [4] = molecular target: T1, wild-type (WT) BlaC; type: biochemical; conditions: pH 6.4
[5] = tested on: E. coli KA797 cells producing BlaC I105Y; type: cell-based
[6] = tested on: E. coli KA797 cells producing BlaC I105G-G132N; type: cell-based
[7] = tested on: E. coli KA797 cells producing wild-type BlaC; assay: Minimum inhibitory concentration determination; type: cell-based; conditions: Escherichia coli
Protocol: (§1) The MIC was determined for E. coli KA797 cells carrying various pUK21‐blaC plasmids with the lac promoter and tat‐signal peptide upstream of the blaC gene (Figure S7) (Radojković, van Ingen, et al., [2025]). Overnight cultures of E. coli were inoculated into fresh LB medium with 50 μg/mL kanamycin and incubated at 37°C until OD600 reached 2. […] The concentration of the selection antibiotic was increased in 2‐fold increments. The plate was incubated for 16 h at 37°C in a Bioscreen C Pro plate reader with continuous shaking, and the OD600 was recorded every 15 min. The MIC was defined as the concentration of the selection antibiotic at which no increase in OD600 was observed.

[8] = tested on: E. coli KA797 cells, pUK21 vector without blaC gene; assay: Minimum inhibitory concentration determination; type: cell-based; conditions: Escherichia coli, 16 h, 37°C, read-out: MIC carbenicillin
Protocol: as §1

[9] = tested on: E. coli KA797 cells producing BlaC I105G; type: cell-based
[10] = tested on: E. coli KA797 cells producing BlaC I105Y-S130G; type: cell-based
wild-type BlaC = molecular target: T2, wild-type BlaC (Mycobacterium tuberculosis, UniProt P9WKD3); type: biochemical
T2 construct: 6xHis tag with TEV cleavage site (N); made in house; host or cells: E. coli BL21 (DE3) pLysS
T2 sequence (P9WKD3 35-307): T1 sequence (P9WKD3 35-307)

[11] = in combination with carbenicillin at 50 μg/mL

With `CC1(C)S[C@@H]2[C@H](NC(=O)C(C(=O)O)c3ccccc3)C(=O)N2[C@H]1C(=O)O` (stereo partly shown) [Carbenicillin, carbenicillin] the MIC carbenicillin ([1]; 16 h, 37°C) was 100 mg/L (≈ 264 µM), the “MIC times lower than the wild-type” value [2] was 2 times and the MIC carbenicillin ([2]; 16 h, 37°C) was 400 mg/L (≈ 1060 µM). The “K M ^app” value (wild-type (WT) BlaC [3]) was 5.5 ± 0.7 µM, the k cat (wild-type (WT) BlaC [3]) was 0.51 ± 0.02 s⁻¹ and the “k cat/K M ^app” value (wild-type (WT) BlaC [3]) was 0.09 ± 0.01 ^a μM^−1 s^−1. The “k cat /K M ^app relative to the wild-type” value (wild-type (WT) BlaC [4]) was 1, the MIC carbenicillin ([5]; 16 h, 37°C) was 6400 mg/L (≈ 16900 µM) and the MIC carbenicillin ([6]; 16 h, 37°C) was 800 mg/L (≈ 2110 µM). The MIC ([7]; 16 h, 37°C, read-out: MIC carbenicillin) was 800 mg/L (≈ 2110 µM), the MIC [8] was 10 mg/L (≈ 26.4 µM) and the MIC carbenicillin ([9]; 16 h, 37°C) was 800 mg/L (≈ 2110 µM). It also gave an MIC carbenicillin ([10]; 16 h, 37°C) of 800 mg/L (≈ 2110 µM).

For `CC1(C)S[C@@H]2[C@H](NC(=O)[C@H](N)c3ccccc3)C(=O)N2[C@H]1C(=O)O` [Ampicillin, ampicillin], the “K M ^app” value (wild-type (WT) BlaC [3]) is given as 68 ± 3 µM, the k cat (wild-type (WT) BlaC [3]) is given as 14 ± 2 s⁻¹ and the “k cat/K M ^app” value (wild-type (WT) BlaC [3]) is given as 0.21 ± 0.01 μM^−1 s^−1 and 0.21 ± 0.01 ^a μM^−1 s^−1. The KMapp (wild-type (WT) BlaC [4]) was 46 ± 12 µM, the “k cat /K M ^app relative to the wild-type” value (wild-type (WT) BlaC [4]) was 1 and the kcat (wild-type (WT) BlaC [4]) was 9 ± 1 s⁻¹. The kcat/KMapp (wild-type (WT) BlaC [4]) was 210000 ± 10000 M⁻¹ s⁻¹ and the “kcat/KMapp relative to the wild-type” value (wild-type (WT) BlaC [4]) was 1.

With `O=C(Cc1cccs1)N[C@@H]1C(=O)N2C(C(=O)O)=C(/C=C/c3ccc([N+](=O)[O-])cc3[N+](=O)[O-])CS[C@H]12` [Nitrocefin, nitrocefin] the “K M ^app” value (wild-type (WT) BlaC [4]) was 180 ± 70 µM, the k cat (wild-type (WT) BlaC [4]) was 90 ± 20 s⁻¹ and the “k cat /K M ^app relative to the wild-type” value (wild-type (WT) BlaC [4]) was 1. For the same molecule, the “k cat/K M ^app” value (wild-type (WT) BlaC [4]) was 0.5 ± 0.2 ^a μM^−1 s^−1.

With `O=C(O)[C@H]1/C(=C/CO)O[C@@H]2CC(=O)N21` [Clavulanic acid, clavulanic acid] the MIC clavulanic acid [1, 11] was 4 mg/L, the “incubation time after which the enzyme reaches its original activity again” value (wild-type BlaC) was 2 h and the “time to full inhibition of the enzyme” value (wild-type BlaC) was under 5 min. For the same molecule, the MIC clavulanic acid [2, 11] was 1 mg/L, the MIC clavulanic acid [5, 11] was 2 mg/L and the MIC clavulanic acid [6, 11] was 16 mg/L. It also gave an MIC ([7]; read-out: MIC clavulanic acid, in combination with carbenicillin at 50 μg/mL) of 1 mg/L, an MIC clavulanic acid [9, 11] of 4 mg/L and an MIC clavulanic acid [10, 11] of 32 mg/L.
